The values that follow come from patent publication US11384066B1, “Heterocyclic compounds useful as aurora a selective inhibitors” (Jacobio Pharmaceuticals Co., Ltd., priority 2020, dated 2022).

The target in one assay is Aurora A (Homo sapiens (Human), UniProt O14965). Description: Aurora A kinase assay (mobility shift assay). The format is biochemical. The protocol: (§1) Example A: Evaluation of Aurora a and Aurora B Inhibitory Effect—Kinase Assay
(§2) The inhibitory activities of a test compound against Aurora A and Aurora B were measured according to the following method.
(§3) The IC50 value of Aurora A and Aurora B kinase was performed by Sundia MediTech Co. Ltd. using Mobility shift assay.
(§4) • (1) Prepare a 1× kinase buffer [50 mM 4-(2-hydroxyethyl)-1-piperazineethanesulfonic acid (HEPES), PH 7.5, 0.01% Brij-35, 10 mM MgCl2, 2 mM dithiothreitol (DTT)]. • (2) Prepare compound:
(§5) The testing compound was dissolved with DMSO. The testing compound was diluted up to 100× final concentration in a 384-well plate. Transfer 250 nL of the compound dilution to a 384-well assay plate using Echo 550. 100% DMSO of 250 nL was added to the negative control well and the positive control well. • (3) Prepare a 2.5× enzyme solution using the above 1× kinase buffer. • (4) Add 10 μL of the 2.5× enzyme solution to the compound well and the positive control well of the 384-well assay plate. Add 10 μL of the 1× kinase buffer to the negative control well. • (5) The 384-well plate was centrifuged at 1000 rpm for 30 seconds and incubated at room temperature for 10 min. • (6) A mixture of ATP and Kinase substrate 21 with a final concentration of 25/15× was prepared by the 1× kinase buffer. • (7) Add 15 μL of the mixture of 25/15×ATP and kinase substrate solution 21 to start reaction. • (8) The 384-well plate was centrifuged at 1000 rpm for 30 seconds and incubated at room temperature. • (9) 30 μL of the stop and detection buffer was added to stop the kinase reaction and centrifuged at 1000 rpm for 30 seconds. • (10) Collect data on Caliper EZ ReaderII. Data Analysis:
(§6) Conversion %_sample is conversion rate data of samples. Conversion %_min is mean value of negative control (conversion rate data without enzyme activation). Conversion %_max is mean positive control (conversion rate data without compound).
(§7) The log of concentration is on the X axis, and the percentage inhibition is on the Y axis. Fit the Quantitative effect curves with log (inhibitor) vs. response—Variable slope in GraphPad Prism5 obtain IC50 values. Equation used is Y=Bottom+(Top−Bottom)/(1+10^((Log IC50−X)*HillSlope)).

Another assay has as its target Aurora B (Homo sapiens (Human), UniProt Q96GD4). Description: Aurora B kinase assay (mobility shift assay). The format is biochemical. Particulars: ratio of Aurora B IC50 to Aurora A IC50. The procedure:
as §1, §2, §3, §4, §5, §6, §7

Chain of Aurora B (Q96GD4 whole entry): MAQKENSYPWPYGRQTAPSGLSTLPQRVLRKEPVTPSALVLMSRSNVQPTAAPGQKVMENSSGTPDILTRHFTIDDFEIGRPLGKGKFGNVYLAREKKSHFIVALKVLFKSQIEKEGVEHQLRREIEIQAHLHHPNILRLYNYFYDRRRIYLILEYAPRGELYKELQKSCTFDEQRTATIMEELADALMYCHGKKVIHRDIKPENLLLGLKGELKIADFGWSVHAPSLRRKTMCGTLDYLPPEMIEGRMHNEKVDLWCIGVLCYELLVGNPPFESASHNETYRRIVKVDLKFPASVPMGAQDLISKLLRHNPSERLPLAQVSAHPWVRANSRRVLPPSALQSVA
Chain of Aurora A (O14965 whole entry): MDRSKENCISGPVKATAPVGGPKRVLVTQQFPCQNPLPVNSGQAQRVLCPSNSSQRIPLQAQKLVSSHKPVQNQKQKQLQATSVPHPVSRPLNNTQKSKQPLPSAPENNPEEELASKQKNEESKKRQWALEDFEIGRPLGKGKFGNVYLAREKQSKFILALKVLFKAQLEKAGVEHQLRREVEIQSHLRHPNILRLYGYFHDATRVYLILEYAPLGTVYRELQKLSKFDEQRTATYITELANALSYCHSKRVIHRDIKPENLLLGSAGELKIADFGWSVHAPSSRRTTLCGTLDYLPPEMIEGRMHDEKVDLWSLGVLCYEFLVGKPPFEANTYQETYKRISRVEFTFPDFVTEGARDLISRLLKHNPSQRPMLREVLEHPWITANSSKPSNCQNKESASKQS

Turning to `Cc1cc(Nc2cncc(C[C@@]3(C(=O)O)CCN(Cc4cccc(Cl)c4F)[C@H](C)C3)n2)n[nH]1` (stereo in doubt) [Example 45, (2R,4R)-1-(3-chloro-2-fluorobenzyl)-2-methyl-4-((6-((5-methyl-1H-pyrazol-3-yl)amino)pyrazin-2-yl)methyl)piperidine-4-carboxylic acid], the IC50 on Aurora A turned out to be 0.88 nM. Also, at Aurora B, the “IC50 Ratio Aur B/Aur A” value was determined as 523.

As for `Cc1cc(Nc2ccc(F)c(CC3(C(=O)O)CCN(Cc4cccc(Cl)c4F)CC3)n2)n[nH]1` [Example 1, 1-(3-chloro-2-fluorobenzyl)-4-((3-fluoro-6-((5-methyl-1H-pyrazol-3-yl)amino)pyridin-2-yl)methyl)piperidine-4-carboxylic acid], the IC50 at Aurora A stood at 1.3 nM. Moreover, the “IC50 Ratio Aur B/Aur A” value on Aurora B amounted to 2288.

As for `CCC1CC(Cc2nc(Nc3cc(C)[nH]n3)ccc2F)(C(=O)O)CCN1Cc1cccc(Cl)c1F` (stereo not shown) [Example 2, 1-(3-chloro-2-fluorobenzyl)-2-ethyl-4-((3-fluoro-6-((5-methyl-1H-pyrazol-3-yl)amino)pyridin-2-yl)methyl)piperidine-4-carboxylic acid], the half-maximal inhibitory concentration (IC50) on Aurora A was determined as 2.9 nM. Moreover, the “IC50 Ratio Aur B/Aur A” value at Aurora B was 1236.

Turning to `Cc1cc(Nc2ccc(C)c(C[C@@]3(C(=O)O)CCN(Cc4cccc(Cl)c4F)[C@H](C)C3)n2)n[nH]1` [Example 10, (2R,4R)-1-(3-chloro-2-fluorobenzyl)-2-methyl-4-((3-methyl-6-((5-methyl-1H-pyrazol-3-yl)amino)pyridin-2-yl)methyl) piperidine-4-carboxylic acid], the half-maximal inhibitory concentration (IC50) at Aurora A was 1 nM. The “IC50 Ratio Aur B/Aur A” value on Aurora B amounted to 979.

Consider `Cc1cc(Nc2ccc(Cl)c(C[C@@]3(C(=O)O)CCN(Cc4cccc(Cl)c4F)[C@H](C)C3)n2)n[nH]1` [Example 11, (2R,4R)-1-(3-chloro-2-fluorobenzyl)-4-((3-chloro-6-((5-methyl-1H-pyrazol-3-yl)amino)pyridin-2-yl)methyl)-2-methylpiperidine-4-carboxylic acid], for which, on Aurora A, the IC50 turned out to be 0.64 nM. On Aurora B, the “IC50 Ratio Aur B/Aur A” value was found to be 2264.

Consider `Cc1cc(Nc2ccc(F)c(C[C@@]3(C(=O)O)CCN(Cc4c(F)cccc4F)[C@H](C)C3)n2)n[nH]1` [Example 12, (2R,4R)-1-(2,6-difluorobenzyl)-4-((3-fluoro-6-((5-methyl-1H-pyrazol-3-yl)amino)pyridin-2-yl)methyl)-2-methylpiperidine-4-carboxylic acid], for which, at Aurora A, the 50% inhibitory concentration (IC50) came out at 2.4 nM. Besides, the “IC50 Ratio Aur B/Aur A” value on Aurora B is on record as 2560.

As to `Cc1cc(Nc2ccc(F)c(C[C@@]3(C(=O)O)CCN(Cc4cccc(F)c4F)[C@H](C)C3)n2)n[nH]1` [Example 15, (2R,4R)-1-(2,3-difluorobenzyl)-4-((3-fluoro-6-((5-methyl-1H-pyrazol-3-yl)amino)pyridin-2-yl)methyl)-2-methylpiperidine-4-carboxylic acid], at Aurora A, the IC50 is 0.55 nM. Moreover, the “IC50 Ratio Aur B/Aur A” value at Aurora B was determined as 1755.

For `Cc1cc(Nc2ccc(F)c(C[C@@]3(C(=O)O)CCN(Cc4cccc(C)c4F)[C@H](C)C3)n2)n[nH]1` [Example 16, (2R,4R)-1-(2-fluoro-3-methylbenzyl)-4-((3-fluoro-6-((5-methyl-1H-pyrazol-3-yl)amino)pyridin-2-yl)methyl)-2-methylpiperidine-4-carboxylic acid], the half-maximal inhibitory concentration (IC50) at Aurora A turned out to be 1.7 nM. In addition, the “IC50 Ratio Aur B/Aur A” value at Aurora B is listed as 1812.

`Cc1cc(Nc2ccc(F)c(C[C@@]3(C(=O)O)CCN(Cc4c(Cl)cccc4Cl)[C@H](C)C3)n2)n[nH]1` [Example 17, (2R,4R)-1-(2,6-dichlorobenzyl)-4-((3-fluoro-6-((5-methyl-1H-pyrazol-3-yl)amino)pyridin-2-yl)methyl)-2-methylpiperidine-4-carboxylic acid]: at Aurora A, the concentration for half-maximal inhibition (IC50) worked out at 3.2 nM. Also, on Aurora B, the “IC50 Ratio Aur B/Aur A” value was found to be 2974.

With `Cc1cc(Nc2ccc(F)c(C[C@@]3(C(=O)O)CCN(Cc4cccc(C(F)(F)F)c4)[C@H](C)C3)n2)n[nH]1` [Example 21, (2R,4R)-4-((3-fluoro-6-((5-methyl-1H-pyrazol-3-yl)amino)pyridin-2-yl)methyl)-2-methyl-1-(3-(trifluoromethyl)benzyl) piperidine-4-carboxylic acid], the half-maximal inhibitory concentration (IC50) at Aurora A stood at 3.1 nM. Besides, the “IC50 Ratio Aur B/Aur A” value on Aurora B is given as 1789.

With `Cc1cc(Nc2ccc(F)c(C[C@@]3(C(=O)O)CCN(Cc4cc(Cl)c(F)c(Cl)c4)[C@H](C)C3)n2)n[nH]1` [Example 23, (2R,4R)-1-(3,5-dichloro-4-fluorobenzyl)-4-((3-fluoro-6-((5-methyl-1H-pyrazol-3-yl)amino)pyridin-2-yl)methyl)-2-methylpiperidine-4-carboxylic acid], the IC50 on Aurora A came to 0.91 nM. Further, at Aurora B, the “IC50 Ratio Aur B/Aur A” value is on record as 613.

For `Cc1cc(Nc2ncc(F)c(C[C@@]3(C(=O)O)CCN(Cc4cccc(Cl)c4F)[C@H](C)C3)n2)n[nH]1` [Example 26, (2R,4R)-1-(3-chloro-2-fluorobenzyl)-4-((5-fluoro-2-((5-methyl-1H-pyrazol-3-yl)amino)pyrimidin-4-yl)methyl)-2-methylpiperidine-4-carboxylic acid], the IC50 on Aurora A stood at 2.9 nM. For the same molecule, the “IC50 Ratio Aur B/Aur A” value on Aurora B is on record as 1499.

`Cc1cc(Nc2ccc(F)c(C[C@@]3(C(=O)O)CCN(Cc4ccc(F)c(Cl)c4F)[C@H](C)C3)n2)n[nH]1` [Example 27, (2R,4R)-1-(3-chloro-2,4-difluorobenzyl)-4-((3-fluoro-6-((5-methyl-1H-pyrazol-3-yl)amino)pyridin-2-yl)methyl)-2-methylpiperidine-4-carboxylic acid]: the IC50 at Aurora A worked out at 0.81 nM. For the same molecule, the “IC50 Ratio Aur B/Aur A” value at Aurora B is reported as 622.

For the molecule `Cc1cc(Nc2cccc(C[C@@]3(C(=O)O)CCN(Cc4cccc(Cl)c4F)[C@H](C)C3)n2)n[nH]1` [Example 29, (2R,4R)-1-(3-chloro-2-fluorobenzyl)-2-methyl-4-((6-((5-methyl-1H-pyrazol-3-yl)amino)pyridin-2-yl)methyl)piperidine-4-carboxylic acid], on Aurora A, the IC50 was 1.4 nM. The “IC50 Ratio Aur B/Aur A” value on Aurora B is 586.

On to `Cc1cc(Nc2nc(C[C@@]3(C(=O)O)CCN(Cc4cccc(Cl)c4F)[C@H](C)C3)cnc2C)n[nH]1` [Example 33, (2R,4R)-1-(3-chloro-2-fluorobenzyl)-2-methyl-4-((5-methyl-6-((5-methyl-1H-pyrazol-3-yl)amino)pyrazin-2-yl)methyl) piperidine-4-carboxylic acid], for which the IC50 at Aurora A turned out to be 1.5 nM. Also, the “IC50 Ratio Aur B/Aur A” value at Aurora B is 3757.

For `Cc1cc(Nc2nc(C[C@@]3(C(=O)O)CCN(Cc4cccc(Cl)c4F)[C@H](C)C3)c(F)cc2C)[nH]n1` [Example 35, (2R,4R)-1-(3-chloro-2-fluorobenzyl)-4-((3-fluoro-5-methyl-6-((3-methyl-1H-pyrazol-5-yl)amino)pyridin-2-yl)methyl)-2-methylpiperidine-4-carboxylic acid], at Aurora A, the half-inhibitory concentration (IC50) is 1.9 nM. Also, on Aurora B, the “IC50 Ratio Aur B/Aur A” value was found to be 2403.

Regarding `Cc1cc(Nc2ccc(F)c(C[C@@]3(C(=O)O)CCN(C(=O)Cc4cccc(Cl)c4F)[C@H](C)C3)n2)n[nH]1` [Example 38, (2R,4R)-1-(2-(3-chloro-2-fluorophenyl)acetyl)-4-((3-fluoro-6-((5-methyl-1H-pyrazol-3-yl)amino)pyri-din-2-yl)methyl)-2-methyl-piperidine-4-carboxylic acid], the IC50 at Aurora A is 0.85 nM. Also, at Aurora B, the “IC50 Ratio Aur B/Aur A” value was determined as 986.

As for `Cc1cc(Nc2ccc(F)c(C[C@@]3(C(=O)O)CCN(S(=O)(=O)c4ccccc4C(F)(F)F)[C@H](C)C3)n2)n[nH]1` [Example 39, (2R,4R)-4-((3-fluoro-6-((5-methyl-1H-pyrazol-3-yl)amino)pyridin-2-yl)methyl)-2-methyl-1-((2-(trifluoromethyl)phenyl)sulfonyl)piperidine-4-carboxylic acid], the IC50 at Aurora A came to 0.57 nM. Also, the “IC50 Ratio Aur B/Aur A” value on Aurora B is reported as 3019.

Regarding `Cc1cc(Nc2ccc(F)c(C[C@@]3(C(=O)O)CCN([C@@H](C)c4cccc(Cl)c4F)[C@H](C)C3)n2)n[nH]1` [Example 41, (2R,4R)-1-(1-(3-chloro-2-fluorophenyl)ethyl)-4-((3-fluoro-6-((5-methyl-1H-pyrazol-3-yl)amino)pyridin-2-yl)methyl)-2-methylpiperidine-4-carboxylic acid], the 50% inhibitory concentration (IC50) on Aurora A was 2.7 nM. Besides, the “IC50 Ratio Aur B/Aur A” value at Aurora B is listed as 3682.

As for `Cc1cc(Nc2cc(C)c(F)c(CC3(C(=O)O)CCN(Cc4cccc(Cl)c4F)CC3)n2)n[nH]1` [Example 51, 1-(3-chloro-2-fluorobenzyl)-4-((3-fluoro-4-methyl-6-((5-methyl-1H-pyrazol-3-yl)amino)-pyridin-2-yl)methyl)piper-idine-4-carboxylic acid], at Aurora A, the IC50 turned out to be 0.22 nM. Further, the “IC50 Ratio Aur B/Aur A” value at Aurora B is on record as 2833.
